Activity calls are given as the source filed them. The rule behind the calls is not given here.
Tested on: CCRIS mutagenicity, Ames/micronucleus/aberration tests
Experiment: CCRIS mutagenicity studies
[1] = Test System: AMES SALMONELLA TYPHIMURIUM, Strain/Indicator: TA98, Metabolic Activation: NONE, Method: PREINCUBATION
[2] = Test System: AMES SALMONELLA TYPHIMURIUM, Strain/Indicator: TA102, Metabolic Activation: NONE, Method: PREINCUBATION
[3] = Test System: AMES SALMONELLA TYPHIMURIUM, Strain/Indicator: TA1537, Metabolic Activation: NONE, Method: PREINCUBATION
[4] = Test System: E. COLI, Strain/Indicator: WP2 UVRA, Metabolic Activation: NONE, Method: PREINCUBATION
[5] = Test System: AMES SALMONELLA TYPHIMURIUM, Strain/Indicator: TA100, Metabolic Activation: NONE, Method: PREINCUBATION
[6] = Test System: AMES SALMONELLA TYPHIMURIUM, Strain/Indicator: TA1535, Metabolic Activation: NONE, Method: PREINCUBATION

Q: How did the mutagenic call (End Point: IN VITRO CHROMOSOMAL ABERRATIONS, Test System: CHL CELLS, Metabolic Activation: RAT, LIVER, S-9, SODIUM PHENOBARBITAL AND 5,6-BENZOFLAVONE) turn out when `CNN` was run?
A: active; positive (structural changes)

Q: What about the mutagenic call [1] of the same molecule?
A: inactive; negative

Q: What about the mutagenic call (Test System: AMES SALMONELLA TYPHIMURIUM, Strain/Indicator: TA98, Metabolic Activation: RAT LIVER S-9, PHENOBARBITAL AND BETA-NAPHTHOFLAVONE, Method: PREINCUBATION) of the same molecule?
A: inactive; negative

Q: What about the mutagenic call (Test System: AMES SALMONELLA TYPHIMURIUM, Strain/Indicator: TA100, Metabolic Activation: RAT LIVER S-9, PHENOBARBITAL AND BETA-NAPHTHOFLAVONE, Method: PREINCUBATION) of the same molecule?
A: inactive; negative

Q: What about the mutagenic call [2] of the same molecule?
A: active; positive

Q: What about the mutagenic call (Test System: AMES SALMONELLA TYPHIMURIUM, Strain/Indicator: TA1535, Metabolic Activation: RAT LIVER S-9, PHENOBARBITAL AND BETA-NAPHTHOFLAVONE, Method: PREINCUBATION) of the same molecule?
A: active; positive

Q: What about the mutagenic call (Test System: AMES SALMONELLA TYPHIMURIUM, Strain/Indicator: TA1535, Metabolic Activation: RAT, LIVER, S-9, AROCLOR 1254, Method: PREINCUBATION) of the same molecule?
A: inactive; negative

Q: And the mutagenic call [3]?
A: inactive; negative

Q: What about the mutagenic call (Test System: AMES SALMONELLA TYPHIMURIUM, Strain/Indicator: TA1537, Metabolic Activation: RAT LIVER S-9, PHENOBARBITAL AND BETA-NAPHTHOFLAVONE, Method: PREINCUBATION) of the same molecule?
A: inactive; negative

Q: And the mutagenic call (Test System: AMES SALMONELLA TYPHIMURIUM, Strain/Indicator: TA1537, Metabolic Activation: RAT, LIVER, S-9, AROCLOR 1254, Method: PREINCUBATION)?
A: inactive; negative

Q: What about the mutagenic call [4] of the same molecule?
A: active; positive

Q: And the mutagenic call (Test System: E.COLI, Strain/Indicator: WP2UVRA, Metabolic Activation: RAT LIVER S-9, PHENOBARBITAL AND BETA-NAPHTHOFLAVONE, Method: PREINCUBATION)?
A: active; positive

Q: Which results are given for `CCCCCCCCCCCC(=O)N(CCO)CCO`?
A: mutagenic call (End Point: IN VITRO CHROMOSOMAL ABERRATIONS, Test System: CHO-LB CELLS, Metabolic Activation: NONE): inactive; negative; mutagenic call (End Point: IN VITRO CHROMOSOMAL ABERRATIONS, Test System: CHO-LB CELLS, Metabolic Activation: RAT, LIVER, S-9, AROCLOR 1254): inactive; negative; mutagenic call (Test System: AMES SALMONELLA TYPHIMURIUM, Strain/Indicator: TA97, Metabolic Activation: HAMSTER, LIVER, S-9, AROCLOR 1254 (10%), Method: PREINCUBATION): inactive; negative; mutagenic call (Test System: AMES SALMONELLA TYPHIMURIUM, Strain/Indicator: TA97, Metabolic Activation: HAMSTER, LIVER, S-9, AROCLOR 1254 (30%), Method: PREINCUBATION): inactive; negative; mutagenic call (Test System: AMES SALMONELLA TYPHIMURIUM, Strain/Indicator: TA97, Metabolic Activation: NONE, Method: PREINCUBATION): inactive; negative; mutagenic call (Test System: AMES SALMONELLA TYPHIMURIUM, Strain/Indicator: TA97, Metabolic Activation: RAT, LIVER, S-9, AROCLOR 1254 (10%), Method: PREINCUBATION): inactive; negative; mutagenic call (Test System: AMES SALMONELLA TYPHIMURIUM, Strain/Indicator: TA97, Metabolic Activation: RAT, LIVER, S-9, AROCLOR 1254 (30%), Method: PREINCUBATION): inactive; negative; mutagenic call (Test System: AMES SALMONELLA TYPHIMURIUM, Strain/Indicator: TA98, Metabolic Activation: HAMSTER, LIVER, S-9, AROCLOR 1254 (10%), Method: PREINCUBATION): inactive; negative; mutagenic call (Test System: AMES SALMONELLA TYPHIMURIUM, Strain/Indicator: TA98, Metabolic Activation: HAMSTER, LIVER, S-9, AROCLOR 1254 (30%), Method: PREINCUBATION): inactive; negative; mutagenic call [1]: inactive; negative; mutagenic call (Test System: AMES SALMONELLA TYPHIMURIUM, Strain/Indicator: TA98, Metabolic Activation: RAT, LIVER, S-9, AROCLOR 1254 (10%), Method: PREINCUBATION): inactive; negative; mutagenic call (Test System: AMES SALMONELLA TYPHIMURIUM, Strain/Indicator: TA98, Metabolic Activation: RAT, LIVER, S-9, AROCLOR 1254 (30%), Method: PREINCUBATION): inactive; negative; mutagenic call (Test System: AMES SALMONELLA TYPHIMURIUM, Strain/Indicator: TA100, Metabolic Activation: HAMSTER, LIVER, S-9, AROCLOR 1254 (10%), Method: PREINCUBATION): inactive; negative; mutagenic call (Test System: AMES SALMONELLA TYPHIMURIUM, Strain/Indicator: TA100, Metabolic Activation: HAMSTER, LIVER, S-9, AROCLOR 1254 (30%), Method: PREINCUBATION): inactive; negative; mutagenic call [5]: inactive; negative; mutagenic call (Test System: AMES SALMONELLA TYPHIMURIUM, Strain/Indicator: TA100, Metabolic Activation: RAT, LIVER, S-9, AROCLOR 1254 (10%), Method: PREINCUBATION): inactive; negative; mutagenic call (Test System: AMES SALMONELLA TYPHIMURIUM, Strain/Indicator: TA100, Metabolic Activation: RAT, LIVER, S-9, AROCLOR 1254 (30%), Method: PREINCUBATION): inactive; negative; mutagenic call (Test System: AMES SALMONELLA TYPHIMURIUM, Strain/Indicator: TA1535, Metabolic Activation: HAMSTER, LIVER, S-9, AROCLOR 1254 (10%), Method: PREINCUBATION): inactive; negative; mutagenic call (Test System: AMES SALMONELLA TYPHIMURIUM, Strain/Indicator: TA1535, Metabolic Activation: HAMSTER, LIVER, S-9, AROCLOR 1254 (30%), Method: PREINCUBATION): inactive; negative; mutagenic call [6]: inactive; negative; mutagenic call (Test System: AMES SALMONELLA TYPHIMURIUM, Strain/Indicator: TA1535, Metabolic Activation: RAT, LIVER, S-9, AROCLOR 1254 (10%), Method: PREINCUBATION): inactive; negative; mutagenic call (Test System: AMES SALMONELLA TYPHIMURIUM, Strain/Indicator: TA1535, Metabolic Activation: RAT, LIVER, S-9, AROCLOR 1254 (30%), Method: PREINCUBATION): inactive; negative

Q: With `CC(=O)C(C)=O` as the molecule, how does the mutagenic call [1] read?
A: inactive; negative

Q: And the mutagenic call (Test System: AMES SALMONELLA TYPHIMURIUM, Strain/Indicator: TA98, Metabolic Activation: RAT, LIVER, S-9, AROCLOR 1254, Method: PREINCUBATION)?
A: inactive; negative

Q: What about the mutagenic call [5] of the same molecule?
A: inactive; negative

Q: And the mutagenic call (Test System: AMES SALMONELLA TYPHIMURIUM, Strain/Indicator: TA100, Metabolic Activation: NONE, Method: STANDARD PLATE)?
A: active; positive

Q: What about the mutagenic call (Test System: AMES SALMONELLA TYPHIMURIUM, Strain/Indicator: TA100, Metabolic Activation: RAT, LIVER, S-9, AROCLOR 1254, Method: PREINCUBATION) of the same molecule?
A: inactive; negative

Q: What about the mutagenic call (Test System: AMES SALMONELLA TYPHIMURIUM, Strain/Indicator: TA100, Metabolic Activation: RAT, LIVER, S-9, PHENOBARBITAL, Method: STANDARD PLATE) of the same molecule?
A: active; positive

Q: What about the mutagenic call [2] of the same molecule?
A: active; positive

Q: What about the mutagenic call (Test System: AMES SALMONELLA TYPHIMURIUM, Strain/Indicator: TA102, Metabolic Activation: RAT, LIVER, S-9, AROCLOR 1254, Method: PREINCUBATION) of the same molecule?
A: active; positive

Q: What about the mutagenic call (Test System: AMES SALMONELLA TYPHIMURIUM, Strain/Indicator: TA104, Metabolic Activation: NONE, Method: PREINCUBATION) of the same molecule?
A: active; positive

Q: And the mutagenic call [6]?
A: inactive; negative

Q: And the mutagenic call [3]?
A: inactive; negative

Q: And the mutagenic call (Test System: AMES SALMONELLA TYPHIMURIUM, Strain/Indicator: TA1538, Metabolic Activation: NONE, Method: PREINCUBATION)?
A: inactive; negative

Q: And the mutagenic call [4]?
A: inactive; negative
